Measurements from patent US20230145666A1, “REAL TIME ELECTRONIC CELL SENSING SYSTEMS AND APPLICATIONS FOR CELL-BASED ASSAYS” (Agilent Technologies, Inc., priority 2002, published 2023).
Read-outs that look alike come from different tables or passages of the source. Values belong to the molecule of their own block, whether it stands above or below them.

Columns and labels:
Format in all cases: cell-based, rat
[1] = test system: IgE-mediated RBL-2H3 mast cell activation; assay: Cell-substrate impedance assay: pharmacological inhibition of antigen-mediated mast cell activation; settings: at peak response
Experimental: RBL-2H3 mast cells were sensitized with 100 ng/mL anti-DNP-IgE and then incubated with the indicated concentrations of the Bisindolylmaleimide 1 hour prior to addition of 100 ng/mL DNP-BSA. The impedance value indicated as Cell Index was monitored using a cell-substrate impedance monitoring system of the present invention.
The real-time cell-substrate impedance monitoring system comprises three components, an impedance analyzer, a device station, and one or more 16X microtiter devices. Microelectrode sensor arrays were fabricated on glass slides using lithographical microfabrication methods and the electrode-containing slides were assembled to plastic trays to form 16 electrode-containing wells. The device station of the system receives the 16X microtiter devices and is capable of electronically switching any one of the wells to the sensor (impedance) analyzer for impedance measurement. In operation, the devices with cells cultured in the wells are placed into a device station that is located inside an incubator. Electrical cables connect the device station to the sensor (impedance) analyzer. Under the impedance monitoring system’s software control, the impedance analyzer can automatically select wells to be measured and continuously conduct impedance measurements. The impedance data from the analyzer is transferred to a computer, analyzed and processed by integrated software.
To quantify cell status based on the measured cell-electrode impedance, a parameter termed Cell Index is derived, according to
where Rb (f) and Rcell (f) are the frequency dependent electrode resistances (a component of impedance) without cells or with cell present, respectively. N is the number of the frequency points at which the impedance is measured. Thus, Cell Index is a quantitative measure of the status of the cells in an electrode-containing well. Under the same physiological conditions, more cells attached on to the electrodes leads to larger Rcell (f) value, leading to a larger value for Cell Index. […]
20,000 RBL-2H3 cells were seeded per well of a 16X microtiter device and monitored by the impedance measuring system. […] The cell-electrode impedance was continuously measured and the corresponding, time dependent Cell-Index values were derived and recorded.
RBL-2H3 cells were seeded in a 16X microtiter plate device and pre-stimulated with anti-DNP-IgE were incubated for 1 hour with the indicated doses of the PKC-specific inhibitor Bisindolylmaleimide and subsequently treated with 100 ng/mL DNP-BSA (FIG. 17). The dose-dependent inhibition of RBL-2H3 mast cell activation by Bisindolylmaleimide can be monitored on the cell-substrate monitoring system in real-time. […]

RBL-2H3 mast cells [2] = assay: Fluorescence microscopy of actin cytoskeleton (rhodamine-phalloidin); settings: DNP-BSA cross-linking
Experimental: FIGS. 15A-B show correlation between cell-electrode impedance response of RBL-2H3 mast cells and cell morphological dynamics and mediator release. (A) RBL-2H3 mast cells were sensitized with 100 ng/mL IgE or treated with a control IgG antibody and subsequently activated with DNP-BSA. The cells were fixed with paraformaldehyde at the indicated time points, permeablized and stained with rhodamine-phalloidin. The cells were visualized and photographed with a Nikon E-400 immunoflourescence microscope equipped with a CCD camera. (B) RBL-2H3 cells were sensitized with IgE, activated by the addition of DNP-BSA.
RBL-2H3 cells were seeded in 16 well Lab-Tec chamber slides and allowed to attach and spread for 6 hours. The cells were stimulated with anti-DNP IgE at a final concentration of 100 ng/mL or a non-specific mouse IgG at 100 ng/mL and then 16 hours later, the media was aspirated, replaced with fresh media and treated with 100 ng/mL DNP-BSA for the indicated time and then fixed with 4 % parafarmaldehyde. The cells were washed 3X with PBS, permeablized in PBS containing 0.2% TX-100 and blocked in PBS containing 0.5 % BSA. The cells were then stained with rhodamine-phalloidin for 30 minutes, washed 3X with PBS and visualized and imaged using the tritc filter on a Nikon E400 epi-fluorescence microscope and Nikon ACT software. […]

RBL-2H3 mast cells [3] = assay: Impedance monitoring of RBL-2H3 mast cell response to IgE and antigen; settings: anti-DNP IgE sensitized, 100 ng/mL DNP-BSA (FIG. 14)
Experimental: FIG. 13 is a plot of cell index recording indicating mast cell responses to IgE in the presence or absence of antigen. 20,000 RBL-2H3 mast cells were seeded in each well of a 16× device. Cells were allowed to adhere and grow for 22 hours while being recorded. At 22 hours the cells were treated with either 1 microgram/mL non-specific mouse IgG or 1 microgram/mL anti-DNP mouse IgE. The electronic impedance response of the cells were continued to be recorded for an additional 20 hours after which the media in the wells were aspirated and replaced with fresh serum free media. The cells were allowed to recover for 30 minutes and then treated with the 1 microgram/mL of the antigen, DNP-BSA. The electronic impedance response of the cells was measured for an additional 3 hours.
Approximately 14 hours after seeding the cells were incubated with 100 ng/mL anti-DNP IgE followed by application of 100 ng/mL DNP-BSA 24 hours later. Impedance measurements (indicated as Cell Index) were performed at 5 minute intervals post DNP-BSA application.
FIGS. 16A-B show IgE alone-mediated increase in mast cell-electrode impedance response and its effect on antigen-mediated activation step. (A) RBL-2H3 cells seeded on microelectronic sensor arrays were left untreated or treated with indicated concentration of anti-DNP IgE. The impedance value indicated as Cell Index was continuously monitored and recorded using a cell-substrate impedance monitoring system. […] The impedance value indicated as Cell Index was continuously monitored using the system. […]
RBL-2H3 cells were seeded in the 16X device chamber (depicted in FIG. 2) at 20,000 cells/well and the attachment and growth of the cells in the 37° C. tissue culture incubator were monitored in real-time using the cell-substrate monitoring system. […]
20,000 RBL-2H3 cells were seeded per well of a 16X microtiter device and monitored by the impedance measuring system. […] The cell-electrode impedance was continuously measured and the corresponding, time dependent Cell-Index values were derived and recorded. […]

[4] = Rattus norvegicus, RBL-2H3, mast cell activation by impedance, Bisindolylmaleimide N=3, SU6656 N=5, U73122 N=5, Piceatannol N=1, read-out: IC50±SD

- IC50 [1, 4]: 5800 ± 3500 nM
Molecule: CN(C)S(=O)(=O)c1ccc2c(c1)/C(=C/c1cc3c([nH]1)CCCC3)C(=O)N2 [SU6656]

- IC50 [1, 4]: 1000 nM
Molecule: Oc1cc(O)cc(/C=C/c2ccc(O)c(O)c2)c1 [Piceatannol]

- IC50 ([1]; antigen-mediated RBL-2H3 activation, read-out: IC-50 value): ~1000 nM
- IC50 ([1]; mast cell activation by impedance, Bisindolylmaleimide N=3, SU6656 N=5, U73122 N=5, Piceatannol N=1, read-out: IC50±SD): 930 ± 600 nM
Molecule: COc1ccc2c(c1)CC[C@@H]1[C@@H]2CC[C@]2(C)[C@@H](NCCCCCCN3C(=O)C=CC3=O)CC[C@@H]12 [U73122]

Molecule: DNP-BSA: multi-valent antigen DNP-BSA
- time at which extensive ruffling is apparent (RBL-2H3 mast cells [2]; printed as post IgE stimulation): 2.5 min
- time of peak cytoskeletal reorganization (RBL-2H3 mast cells [2]; printed as post-IgE stimulation): 30 to 45 min
- time of return to baseline (RBL-2H3 mast cells [3]): approximately 2.5 hours
- time to detectable impedance increase (RBL-2H3 mast cells [3]): ≤ 5 min
- time to maximal impedance increase (RBL-2H3 mast cells [3]): ≤ 30 min
